Data on three molecules can be found in paper PMC5381274 (FEBS letters, 2016).

For one assay, the system named is NCI H929 cells. The experiment in a line: JC1 BH3 profiling, NCI H929. The class given is cell-based. The note with it: Figure 4A.
The test system of another assay is K562 cells. The experiment in a line: JC1 BH3 profiling, K562. The class given is cell-based. The note with it: Figure 4B.

As to `CSCC[C@H](NC(=O)[C@H](CCCNC(=N)N)NC(=O)[C@H](CCCNC(=N)N)NC(=O)[C@H](CC(C)C)NC(=O)[C@H](CCC(=O)O)NC(=O)[C@H](CCCNC(=N)N)NC(=O)CNC(=O)[C@H](Cc1ccc(O)cc1)NC(=O)[C@H](CCCNC(=N)N)NC(=O)[C@H](CCC(N)=O)NC(=O)[C@H](C)NC(=O)[C@H](C)NC(=O)[C@H](Cc1c[nH]c2ccccc12)NC(=O)[C@H](CC(C)C)NC(C)=O)C(=O)N[C@@H](CO)C(=O)N[C@@H](CC(=O)O)C(=O)N[C@@H](CCC(=O)O)C(=O)N[C@@H](Cc1ccccc1)C(=O)N[C@@H](CCC(=O)O)C(=O)NCC(=O)N[C@@H](CO)C(=O)N[C@@H](Cc1ccccc1)C(=O)N[C@@H](CCCCN)C(=O)NCC(=O)N[C@@H](CC(C)C)C(N)=O` [Bad], the “Mitochondrial depolarization in NCI H929 (BH3 profiling)” value with NCI H929 cells is “not affected”.
Consider `CC[C@H](C)[C@H](NC(=O)[C@H](CCC(=O)O)NC(=O)[C@H](CC(=O)O)NC(=O)CNC(=O)[C@H](CC(C)C)NC(=O)[C@H](CCCNC(=N)N)NC(=O)[C@H](CCCNC(=N)N)NC(=O)[C@H](CC(C)C)NC(=O)CNC(=O)[C@H](CCC(N)=O)NC(=O)[C@@H](NC(=O)[C@H](CCSC)NC(=O)[C@H](Cc1c[nH]c2ccccc12)NC(=O)[C@@H](NC(=O)[C@H](CCC(=O)O)NC(=O)[C@@H]1CCCN1C(=O)[C@H](CCCNC(=N)N)NC(C)=O)[C@@H](C)CC)[C@@H](C)O)C(=O)N[C@@H](CC(N)=O)C(=O)N[C@@H](C)C(=O)N[C@@H](Cc1ccc(O)cc1)C(=O)N[C@@H](Cc1ccc(O)cc1)C(=O)N[C@@H](C)C(=O)N[C@@H](CCCNC(=N)N)C(N)=O` [MS-1], for which the “Mitochondrial depolarization in NCI H929 (BH3 profiling)” value in the assay with NCI H929 cells was “mitochondrial depolarization was observed”. Also, the “Mitochondrial depolarization in K562 (BH3 profiling)” value with K562 cells is listed as “insensitive”.
As to Ac-WSSAAQLTAARLKALGDELHQ-NH2 [HRK], in the assay on NCI H929 cells, the “Mitochondrial depolarization in NCI H929 (BH3 profiling)” value is on record as “not affected”.
